Here are results for 30 molecules from patent US10370366B2 (Flatley Discovery Lab, LLC, priority 2013, dated 2019).

Structures are written as SMILES. pEC50: −log10 of the molar value. Bounds are passed on as bounds.

The pEC50 is −log10 of the EC50, conventionally taken in molar units.

The target of the test is T1, human F508del CFTR (Homo sapiens, UniProt P13569, DEL508-508).
T1 construct: expressed in transfected cells; host or cells: Fisher Rat Thyroid (FRT) cells
Description: CFTR-YFP High Throughput Assay. In kind it is cell-based. Particulars: FRT cells expressing human F508del CFTR and YFP; for Emax: EMax normalized to the positive control, read-out: % Efficacy. Summed up: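 Corrector mode: 24-26 h compound exposure (2 nM-40 μM, 37° C) of FRT cells carrying human F508del CFTR and YFP-H148Q/I152L, followed by washing and 60-120 min RT stimulation with 20 μM forskolin and 30 μM P3. CFTR activity is the least-squares-fitted rate of YFP quenching (Ex 500/Em 540 nm) after iodide addition.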

T1 sequence (P13569 with tags, fused parts or gaps DEL508-508): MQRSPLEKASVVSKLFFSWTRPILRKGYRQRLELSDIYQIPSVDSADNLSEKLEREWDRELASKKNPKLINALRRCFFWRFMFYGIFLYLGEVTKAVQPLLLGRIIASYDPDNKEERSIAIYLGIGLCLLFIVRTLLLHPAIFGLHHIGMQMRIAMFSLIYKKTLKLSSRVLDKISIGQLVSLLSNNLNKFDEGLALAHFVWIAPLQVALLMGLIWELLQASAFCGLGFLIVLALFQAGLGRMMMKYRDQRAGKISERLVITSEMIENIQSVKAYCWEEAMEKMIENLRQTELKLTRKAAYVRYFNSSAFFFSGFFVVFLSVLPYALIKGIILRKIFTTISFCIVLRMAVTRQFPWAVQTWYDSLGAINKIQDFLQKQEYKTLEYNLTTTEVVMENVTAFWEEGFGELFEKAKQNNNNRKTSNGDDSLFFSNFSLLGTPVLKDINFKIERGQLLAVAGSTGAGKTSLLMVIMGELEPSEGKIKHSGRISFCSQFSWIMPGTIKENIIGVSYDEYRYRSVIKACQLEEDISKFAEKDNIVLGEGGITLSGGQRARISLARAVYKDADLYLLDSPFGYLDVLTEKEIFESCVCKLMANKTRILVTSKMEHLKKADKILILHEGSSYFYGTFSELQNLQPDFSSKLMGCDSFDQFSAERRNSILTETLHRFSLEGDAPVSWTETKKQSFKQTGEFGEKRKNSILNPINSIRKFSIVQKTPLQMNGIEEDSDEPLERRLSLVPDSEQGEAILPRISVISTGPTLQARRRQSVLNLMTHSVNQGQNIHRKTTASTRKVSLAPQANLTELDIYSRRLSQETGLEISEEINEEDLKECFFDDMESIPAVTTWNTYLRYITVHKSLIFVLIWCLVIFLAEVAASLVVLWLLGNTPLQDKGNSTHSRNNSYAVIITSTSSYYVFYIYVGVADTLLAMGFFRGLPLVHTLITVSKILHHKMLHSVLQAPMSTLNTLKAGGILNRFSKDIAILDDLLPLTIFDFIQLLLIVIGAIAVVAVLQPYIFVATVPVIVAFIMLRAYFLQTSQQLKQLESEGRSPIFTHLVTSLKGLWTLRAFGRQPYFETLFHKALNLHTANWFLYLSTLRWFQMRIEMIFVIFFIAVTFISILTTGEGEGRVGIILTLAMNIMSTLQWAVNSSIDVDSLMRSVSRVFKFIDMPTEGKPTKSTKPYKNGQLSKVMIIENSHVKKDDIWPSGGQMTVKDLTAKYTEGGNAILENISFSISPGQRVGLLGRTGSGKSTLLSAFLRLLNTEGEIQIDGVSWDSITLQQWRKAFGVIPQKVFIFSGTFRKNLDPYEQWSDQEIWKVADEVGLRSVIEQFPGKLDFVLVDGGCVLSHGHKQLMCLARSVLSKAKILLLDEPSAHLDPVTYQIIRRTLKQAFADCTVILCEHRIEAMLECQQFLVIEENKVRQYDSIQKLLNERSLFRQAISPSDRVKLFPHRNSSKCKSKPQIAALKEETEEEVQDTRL

In the case of `COc1ccc2c(-c3cccc(C#N)c3)nn(CC(=O)N(c3ccc4c(c3)OC(F)(F)O4)C(C)C)c(=O)c2c1` [Example 77, 2-(4-(3-cyanophenyl)-7-methoxy-1-oxophthalazin-2(1H)-yl)-N-(2,2-difluorobenzo[d][1,3]dioxol-5-yl)-N-isopropylacetamide], the Emax is > 80% and the negative-log EC50 (pEC50) was 4.70 to 5.00.

On to `CCN(C(=O)Cn1nc(Cc2cccnc2)c2cc(OC)ccc2c1=O)c1ccc2c(c1)OC(F)(F)O2` [Example 51, N-(2,2-difluorobenzo[d][1,3]dioxol-5-yl)-N-ethyl-2-(6-methoxy-1-oxo-4-(pyridin-3-ylmethyl)phthalazin-2(1H)-yl)acetamide], for which the Emax is 30 to 80%.

As to `CCc1ccc(N(CC)C(=O)Cn2nc(Cc3cccnc3)c3ccc(C)cc3c2=O)cc1` [Example 28, N-ethyl-N-(4-ethylphenyl)-2-(7-methyl-1-oxo-4-(pyridin-3-ylmethyl)phthalazin-2(1H)-yl)acetamide], the Emax lay within 30 to 80%.

Regarding `CCc1ccc(N(CC)C(=O)Cn2nc(-c3cccc(C(N)=O)c3)c3ccccc3c2=O)cc1` [Example 11, 3-(3-(2-(ethyl(4-ethylphenyl)amino)-2-oxoethyl)-4-oxo-3,4-dihydrophthalazin-1-yl)benzamide], the Emax was in the range of 30 to 80% and the negative-log EC50 (pEC50) was 4.70 to 5.00.

On to `CCN(C(=O)c1nn(-c2ccccc2)c(=O)c2c1c1ccccc1n2C)c1ccncc1` [Example 158, N-ethyl-5-methyl-4-oxo-3-phenyl-N-(pyridin-4-yl)-4,5-dihydro-3H-pyridazino[4,5-b]indole-1-carboxamide], for which the Emax lay in the range of 30 to 80%.

Take `CCN(C(=O)Cn1nc(Cc2cccnc2)c2ccc(C)cc2c1=O)c1ccc2c(c1)OC(F)(F)O2` [Example 45, N-(2,2-difluorobenzo[d][1,3]dioxol-5-yl)-N-ethyl-2-(7-methyl-1-oxo-4-(pyridin-3-ylmethyl)phthalazin-2(1H)-yl)acetamide]: the Emax was > 80%.

For `CCc1ccc(N(CC)C(=O)Cn2nc(Cc3cccnc3)c3cccc(C)c3c2=O)cc1` [Example 30, N-ethyl-N-(4-ethylphenyl)-2-(8-methyl-1-oxo-4-(pyridin-3-ylmethyl)phthalazin-2(1H)-yl)acetamide], the Emax lay in the range of 30 to 80%.

As for `COc1ccc2c(c1)c1c(=O)n(CC(=O)N(C)c3ccc4nc(C)oc4c3)ncc1n2Cc1ccc(F)cc1` [Example 260, 2-(5-(4-fluorobenzyl)-8-methoxy-1-oxo-1,5-dihydro-2H-pyridazino[4,5-b]indol-2-yl)-N-methyl-N-(2-methylbenzo[d]oxazol-6-yl)acetamide], the Emax is > 80% and the pEC50 is > 5.00.

For `CCN(C(=O)c1nn(-c2ccccc2F)c(=O)c2c1c1ccccc1n2C)c1ccccc1` [Example 174, N-ethyl-3-(2-fluorophenyl)-5-methyl-4-oxo-N-phenyl-4,5-dihydro-3H-pyridazino[4,5-b]indole-1-carboxamide], the Emax lay within 30 to 80%.

`CCc1ccc(N(CC)C(=O)Cn2nc(-c3ccc(C(=O)O)cc3)c3ccccc3c2=O)cc1` [Example 14, 4-(3-(2-(ethyl(4-ethylphenyl)amino)-2-oxoethyl)-4-oxo-3,4-dihydrophthalazin-1-yl)benzoic acid]: the Emax lay within 30 to 80% and the negative logarithm of the EC50 (pEC50) was < 4.70.

Regarding `COc1ccc2c(-c3cccc(F)c3)nn(CC(=O)C3(c4ccc5c(c4)OC(F)(F)O5)CC3)c(=O)c2c1` [Example 250, 2-(2-(1-(2,2-difluorobenzo[d][1,3]dioxol-5-yl)cyclopropyl)-2-oxoethyl)-4-(3-fluorophenyl)-7-methoxyphthalazin-1(2H)-one], the Emax is 30 to 80% and the pEC50 was > 5.00.

As to `Cc1nc2ccc(N(C)C(=O)Cn3nc(-c4cccc(C#N)c4)c4ccc(OC5CCOCC5)cc4c3=O)cc2o1` [Example 120, 2-(4-(3-cyanophenyl)-1-oxo-7-((tetrahydro-2H-pyran-4-yl)oxy)phthalazin-2(1H)-yl)-N-methyl-N-(2-methylbenzo[d]oxazol-6-yl)acetamide], the Emax is > 80% and the negative logarithm of the EC50 (pEC50) was > 5.00.

With `CCc1ccc(N(CC)C(=O)Cn2nc(Cc3cccnc3)c3cc(OC)ccc3c2=O)cc1` [Example 36, N-ethyl-N-(4-ethylphenyl)-2-(6-methoxy-1-oxo-4-(pyridin-3-ylmethyl)phthalazin-2(1H)-yl)acetamide], the Emax was in the range of 30 to 80%.

For the molecule `CCc1ccc(N(CC)C(=O)Cn2nc(-c3cccc4c3OCO4)c3ccccc3c2=O)cc1` [Example 10, 2-(4-(benzo[d][1,3]dioxol-4-yl)-1-oxophthalazin-2(1H)-yl)-N-ethyl-N-(4-ethylphenyl)acetamide], the Emax was in the range of 10 to 30% and the pEC50 is < 4.70.

Turning to `CCN(C(=O)c1nn(-c2ccc(C(F)(F)F)cn2)c(=O)c2c1c1ccccc1n2C)c1ccccc1` [Example 193, N-ethyl-5-methyl-4-oxo-N-phenyl-3-(5-(trifluoromethyl)pyridin-2-yl)-4,5-dihydro-3H-pyridazino[4,5-b]indole-1-carboxamide], the Emax lay within 30 to 80% and the negative logarithm of the EC50 (pEC50) was > 5.00.

`CCc1ccc(N(CC)C(=O)Cn2nc(C(=O)Nc3cc(Cl)ccc3C#N)c3ccccc3c2=O)cc1` [Example 128, N-(5-chloro-2-cyanophenyl)-3-(2-(ethyl(4-ethylphenyl)amino)-2-oxoethyl)-4-oxo-3,4-dihydrophthalazine-1-carboxamide]: the Emax was in the range of 30 to 80% and the pEC50 is 4.70 to 5.00.

Turning to `CCN(C(=O)Cn1nc(-c2ccc(S(N)(=O)=O)cc2)c2ccc(OC)cc2c1=O)c1ccc2nc(C)oc2c1` [Example 80, N-ethyl-2-(7-methoxy-1-oxo-4-(4-sulfamoylphenyl)phthalazin-2(1H)-yl)-N-(2-methylbenzo[d]oxazol-6-yl)acetamide], the Emax lay in the range of 30 to 80% and the pEC50 is 4.70 to 5.00.

On to `CCN(C(=O)c1nn(C[C@@H](O)CO)c(=O)c2c1c1ccccc1n2C)c1ccccc1` [Example 229, (R)-3-(2,3-dihydroxypropyl)-N-ethyl-5-methyl-4-oxo-N-phenyl-4,5-dihydro-3H-pyridazino[4,5-b]indole-1-carboxamide], for which the Emax is 30 to 80% and the negative-log EC50 (pEC50) is > 5.00.

On to `CCc1ccc(N(CC)C(=O)Cn2nc(-c3cccc4ncccc34)c3ccccc3c2=O)cc1` [Example 5, N-ethyl-N-(4-ethylphenyl)-2-(1-oxo-4-(quinolin-5-yl)phthalazin-2(1H)-yl)acetamide], for which the Emax was 30 to 80%.

Turning to `CCc1ccc(N(CC)C(=O)Cn2nc(-c3cccc(O)c3)c3ccccc3c2=O)cc1` [Example 9, N-ethyl-N-(4-ethylphenyl)-2-(4-(3-hydroxyphenyl)-1-oxophthalazin-2(1H)-yl)acetamide], the Emax lay within 10 to 30% and the negative logarithm of the EC50 (pEC50) was > 5.00.

For `CC(C)n1nc(-c2ccccc2)c2c3ccccc3n(C)c2c1=O` [Example 239, 3-isopropyl-5-methyl-1-phenyl-3,5-dihydro-4H-pyridazino[4,5-b]indol-4-one], the Emax is 30 to 80% and the negative logarithm of the EC50 (pEC50) is < 4.70.

Take `CCN(C(=O)c1nn(-c2ccc(C)cc2)c(=O)c2c1c1ccc(Cl)cc1n2C)c1ccccc1` [Example 166, 7-chloro-N-ethyl-5-methyl-4-oxo-N-phenyl-3-(p-tolyl)-4,5-dihydro-3H-pyridazino[4,5-b]indole-1-carboxamide]: the Emax lay in the range of 30 to 80% and the pEC50 was > 5.00.

As for `CC(C)n1nc(C(=O)N2CCCCC2)c2c3ccccc3n(C)c2c1=O` [Example 208, 3-isopropyl-5-methyl-1-(piperidine-1-carbonyl)-3,5-dihydro-4H-pyridazino[4,5-b]indol-4-one], the Emax lay in the range of 10 to 30% and the pEC50 was > 5.00.

`CCN(C(=O)c1nn(C(C)c2ccccc2)c(=O)c2c1c1c(C)cccc1n2C)c1ccccc1` (centres unmarked) [Example 218, N-ethyl-5,9-dimethyl-4-oxo-N-phenyl-3-(1-phenylethyl)-4,5-dihydro-3H-pyridazino[4,5-b]indole-1-carboxamide]: the Emax is > 80% and the pEC50 was > 5.00.

Regarding `CCN(C(=O)c1nn(-c2ccc(C)cn2)c(=O)c2c1c1ccccc1n2C)c1ccccc1` [Example 180, N-ethyl-5-methyl-3-(5-methylpyridin-2-yl)-4-oxo-N-phenyl-4,5-dihydro-3H-pyridazino[4,5-b]indole-1-carboxamide], the Emax is 10 to 30%.

In the case of `CCN(C(=O)Cn1ncc2c(c1=O)c1ccccc1n2Cc1ccccc1C#N)c1ccc2c(c1)OC(F)(F)O2` [Example 141, 2-(5-(2-cyanobenzyl)-1-oxo-1H-pyridazino[4,5-b]indol-2(5H)-yl)-N-(2,2-difluorobenzo[d][1,3]dioxol-5-yl)-N-ethylacetamide], the Emax fell in the range of 30 to 80%.

For `CCN(C(=O)Cn1nc(Cc2cccnc2)c2ccccc2c1=O)c1ccc2c(c1)OC(F)(F)O2` [Example 26, N-(2,2-difluorobenzo[d][1,3]dioxol-5-yl)-N-ethyl-2-(1-oxo-4-(pyridin-3-ylmethyl)phthalazin-2(1H)-yl)acetamide], the Emax fell in the range of 30 to 80%.

In the case of `CCc1ccc(N(CC)C(=O)Cn2nc(-c3ccncc3)c3ccccc3c2=O)cc1` [Example 4, N-ethyl-N-(4-ethylphenyl)-2-(1-oxo-4-(pyridin-4-yl)phthalazin-2(1H)-yl)acetamide], the Emax was 30 to 80%.

With `Cc1ccc(-n2nc(C(=O)Nc3cc(Cl)ccc3C(=O)O)c3c4ccccc4n(C)c3c2=O)cc1` [Example 184, 4-chloro-2-(5-methyl-4-oxo-3-(p-tolyl)-4,5-dihydro-3H-pyridazino[4,5-b]indole-1-carboxamido)benzoic acid], the Emax was 30 to 80% and the pEC50 was < 4.70.

As for `CCN(C(=O)c1nn(C2CCN(Cc3ccccc3)CC2)c(=O)c2c1c1ccccc1n2C)c1ccccc1` [Example 198, 3-(1-benzylpiperidin-4-yl)-N-ethyl-5-methyl-4-oxo-N-phenyl-4,5-dihydro-3H-pyridazino[4,5-b]indole-1-carboxamide], the Emax fell in the range of 30 to 80%.
